Earlier results in patent US20030176652A1, “Human and mouse beta-defensins, antimicrobial peptides” (priority 2001, published 2003).
Where “and” joins values, the source holds several entries; their conditions need not be identical. Equal values may be shown once. Read-outs that look alike come from different tables or passages of the source. Where no end group is shown, it is not given here.

Legend:
Staphylococcus aureus [1] = conditions: physiological salt concentrations
Enterococcus spp. = tested on: Enterococcus spp.; set-up: MIC50 / MIC90: unit not given beside the values
Campylobacter jejuni = tested on: Campylobacter jejuni; set-up: MIC90: unit not given beside the values
Staphylococcus aureus [2] = tested on: Staphylococcus aureus; set-up: MIC50 / MIC90: unit not given beside the values
Listeria monocytogenes = tested on: Listeria monocytogenes; set-up: unit not given beside the values
[3] = tested on: Bordetella bronchiseptica; set-up: MIC50 / MIC90: unit not given beside the values
Streptococcus agalactiae = tested on: Streptococcus agalactiae; set-up: MIC50 / MIC90: unit not given beside the values
[4] = tested on: Branhamella (Moraxella) catarrhalis; conditions: Branhamella (Moraxella) catarrhalis (β-lactamase producer)
Campylobacter pylori = tested on: Campylobacter pylori; set-up: MIC50: unit not given beside the values
Nocardia asteroides = tested on: Nocardia asteroides; set-up: MIC50 / MIC90: unit not given beside the values
Neisseria gonorrhoeae = tested on: Neisseria gonorrhoeae; set-up: MIC90: unit not given beside the values
Neisseria meningitidis = tested on: Neisseria meningitidis; set-up: MIC50 / MIC90: unit not given beside the values
Haemophilus ducreyi = tested on: Haemophilus ducreyi; set-up: unit not given beside the values
Staphylococcus hominis = tested on: Staphylococcus hominis; set-up: unit not given beside the values
[5] = tested on: Staphylococcus haemolyticus
Streptococcus spp. = tested on: Streptococcus spp.; set-up: unit not given beside the values
[6] = tested on: Haemophilus parainfluenzae; set-up: MIC50 / MIC90: unit not given beside the values
Bacteroides fragilis = tested on: Bacteroides fragilis; set-up: MIC50 / MIC90: unit not given beside the values
[7] = tested on: Staphylococcus epidermidis; set-up: unit not given beside the values
Streptococcus pyogenes = tested on: Streptococcus pyogenes; set-up: unit not given beside the values
Haemophilus influenzae = tested on: Haemophilus influenzae; set-up: MIC50 / MIC90: unit not given beside the values
Bacillus spp. = tested on: Bacillus spp.; set-up: MIC90: unit not given beside the values
Mycoplasma hominis = tested on: Mycoplasma hominis; set-up: MIC50 / MIC90: unit not given beside the values
[8] = tested on: cells expressing the human CCR6
[9] = Staphylococcus aureus (methicillin resistant)
[10] = Staphylococcus aureus (penicillin resistant)
[11] = Staphylococcus aureus (penicillin susceptible)
[12] = Neisseria gonorrhoeae (non β-lactamase producer)
[13] = Haemophilus influenzae (non β-lactamase producer)
[14] = Haemophilus influenzae (penicillin resistant)
[15] = Haemophilus influenzae (penicillin susceptible)
[16] = Haemophilus influenzae (β-lactamase producer)

Molecule: DEFB3: protein encoded by the known human β-defensin gene DEFB3 (GIINTLQKYYCRVRGGRCAVLSCLPKEEQIGKCSTRGRKCCRRKK; not fully specified (bridges); cysteine pairing not given here; UniProt P81534 23-67, looked up)
- salt sensitivity of bactericidal activity against Staphylococcus aureus (Staphylococcus aureus [1]): not salt-sensitive

Molecule: CC[C@H]1OC(=O)[C@H](C)[C@@H](O[C@H]2C[C@@](C)(OC)[C@@H](O)[C@H](C)O2)[C@H](C)[C@@H](O[C@@H]2O[C@H](C)C[C@H](N(C)C)[C@H]2O)[C@](C)(O)C[C@@H](C)C(=O)[C@H](C)[C@@H](O)[C@]1(C)O [ERYTHROMYCIN, erythromycin]
- MIC50 (Enterococcus spp.): 2
- MIC90 (Enterococcus spp.): 32
- Range (Enterococcus spp.): 0.06-32
- MIC90 (Campylobacter jejuni): 4 and 2
- Range (Campylobacter jejuni): 0.5-8
- MIC50 (Staphylococcus aureus [2]; Staphylococcus aureus): 0.5
- MIC50 (Staphylococcus aureus [2]; [9]): 64 and 32
- MIC90 (Staphylococcus aureus [2]; [9]): 64 and 32
- MIC50 (Staphylococcus aureus [2]; Staphylococcus aureus (methicillin susceptible)): 0.5
- MIC90 (Staphylococcus aureus [2]; [10]): 32
- Range (Staphylococcus aureus [2]; [10]): 0.25-32
- MIC50 (Staphylococcus aureus [2]; [11]): 0.5
- MIC90 (Staphylococcus aureus [2]; [11]): 0.5
- Range (Staphylococcus aureus [2]; [11]): 0.06-32
- MIC50 (Listeria monocytogenes): 0.5
- MIC50 [3]: 8
- MIC90 [3]: 32
- Range [3]: 4-32
- MIC50 (Streptococcus agalactiae): 0.03
- MIC90 (Streptococcus agalactiae): 0.03
- Range (Streptococcus agalactiae): 0.03-0.25 and 0.015-0.06
- Range [4]: 0.06-1 and 0.03-0.25 and 0.06-8
- MIC50 (Campylobacter pylori): 0.5
- Range (Campylobacter pylori): 0.25-16
- MIC50 (Streptococcus pneumoniae): 0.06 and 0.03
- MIC90 (Streptococcus pneumoniae): 0.03 and 0.06
- Range (Streptococcus pneumoniae): 0.03-0.25 and 0.015-0.06 and 0.015-0.25
- MIC50 (Nocardia asteroides): 8
- MIC90 (Nocardia asteroides): 8
- Range (Nocardia asteroides): 0.25-8
- MIC90 (Neisseria gonorrhoeae; Neisseria gonorrhoeae): 1
- Range (Neisseria gonorrhoeae; Neisseria gonorrhoeae): 0.0075-8
- MIC90 (Neisseria gonorrhoeae; [12]): 2 and 1
- Range (Neisseria gonorrhoeae; [12]): 0.015-4 and 0.03-2
- MIC90 (Neisseria gonorrhoeae; Neisseria gonorrhoeae (β-lactamase producer)): 2 and 4
- MIC50 (Neisseria meningitidis): 1
- MIC90 (Neisseria meningitidis): 8
- Range (Neisseria meningitidis): 0.5-8
- MIC50 (Haemophilus ducreyi): 0.004
- MIC90 (Haemophilus ducreyi): 0.06
- MIC50 (Staphylococcus hominis): 64
- MIC90 (Staphylococcus hominis): 64
- MIC50 [5]: 64
- MIC90 [5]: 64
- MIC90 (Ureaplasma urealyticum): 32
- MIC50 (Streptococcus spp.): 0.03
- MIC50 [6]: 2
- MIC90 [6]: 4
- Range [6]: 0.5-8
- MIC50 (Bacteroides fragilis): 1
- MIC90 (Bacteroides fragilis): 8
- Range (Bacteroides fragilis): 0.25-16
- MIC50 (Enterococcus faecium): 1
- MIC90 (Enterococcus faecium): 64
- Range (Enterococcus faecium): 0.06-64
- MIC50 [7]: 64
- MIC90 [7]: 64
- MIC50 (Streptococcus pyogenes): 0.06 and 0.03
- MIC50 (Haemophilus influenzae; Haemophilus influenzae): 2 and 1
- MIC90 (Haemophilus influenzae; Haemophilus influenzae): 2 and 4
- Range (Haemophilus influenzae; Haemophilus influenzae): 0.5-8 and 0.25-16
- MIC50 (Haemophilus influenzae; [13]): 2 and 4
- MIC90 (Haemophilus influenzae; [13]): 4 and 8
- Range (Haemophilus influenzae; [13]): 0.06-8
- MIC50 (Haemophilus influenzae; [14]): 8
- MIC90 (Haemophilus influenzae; [14]): 16
- Range (Haemophilus influenzae; [14]): 8-16
- MIC50 (Haemophilus influenzae; [15]): 8
- MIC90 (Haemophilus influenzae; [15]): 16
- Range (Haemophilus influenzae; [15]): 0.25-16
- MIC50 (Haemophilus influenzae; [16]): 4 and 2
- MIC90 (Haemophilus influenzae; [16]): 8 and 4
- MIC50 (Borrelia burgdorferi): 0.03
- MIC90 (Borrelia burgdorferi): 0.06
- MIC90 (Bacillus spp.): 2
- Range (Bacillus spp.): 0.03-2
- MIC50 (Corynebacterium JK): 2
- MIC90 (Corynebacterium JK): 64

Molecule: CCC[C@@H]1C[C@@H](C(=O)N[C@@H]([C@H]2O[C@H](SC)[C@H](O)[C@@H](O)[C@H]2O)[C@@H](C)O)N(C)C1 [LINCOMYCIN, lincomycin]
- MIC50 (Staphylococcus aureus [2]; Staphylococcus aureus): 1
- MIC90 (Staphylococcus aureus [2]; Staphylococcus aureus): 1
- Range (Staphylococcus aureus [2]; Staphylococcus aureus): 0.5-512
- MIC50 (Mycoplasma hominis): 2
- MIC90 (Mycoplasma hominis): 4
- Range (Mycoplasma hominis): 0.5-16
- MIC50 (Mycoplasma pneumoniae): 8
- MIC90 (Mycoplasma pneumoniae): 32
- Range (Mycoplasma pneumoniae): 2-32
- MIC50 (Ureaplasma urealyticum): 128
- MIC90 (Ureaplasma urealyticum): 128
- Range (Ureaplasma urealyticum): 64-128

Molecule: HBD-1: known human β-defensin peptide, product of DEFB1 (DHYNCVSSGGQCLYSACPIFTKIQGTCYRGKAKCCK; not fully specified (bridges); cysteine pairing not given here; UniProt P60022 33-68, looked up)
- chemotaxis of cells expressing the human CCR6 [8]: selectively chemotactic

Molecule: CCL20: the only reported chemokine ligand for CCR6
- chemokine activity relative to HBD-1 and HBD-2 ([8]; greater than that of HBD-1 and HBD-2): approximately 10 fold

Molecule: HBD-2: HBD-2 protein encoded by the DEFB2 gene (GIGDPVTCLKSGAICHPVFCPRRYKQIGTCGLPGTKCCKKP; UniProt O15263 24-64, looked up)
- histamine release from mast cells (mast cells): stimulates mast cells to release histamine
- chemotaxis of cells expressing the human CCR6 [8]: selectively chemotactic
